From PMC5126721 (ACS Central Science, 2016) come the findings set out here.

The assay has as its target lysozyme (Gallus gallus, UniProt P00698). Nature of the assay: TIMES. It counts as binding.

pKd: −log10 of the molar value.

Chain of lysozyme (P00698 19-147): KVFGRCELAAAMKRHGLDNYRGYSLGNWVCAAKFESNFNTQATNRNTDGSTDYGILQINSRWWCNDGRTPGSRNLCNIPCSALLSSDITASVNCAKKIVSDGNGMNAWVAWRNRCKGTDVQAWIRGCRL

The pKd is the Kd on a negative log10 scale, so that one unit is a factor of ten. A higher pKd goes with a small Kd. Consider `CC(=O)N[C@H]1[C@H](O[C@H]2[C@H](O)[C@@H](NC(C)=O)C(O)O[C@@H]2CO)O[C@H](CO)[C@@H](O[C@@H]2O[C@H](CO)[C@@H](O)[C@H](O)[C@H]2NC(C)=O)[C@@H]1O` (stereo partly shown) [NAG3, N,N′,N″-triacetylchitotriose], for which the pKd is 4.40.
